Experimental data reported in paper PMC6407917, “Identification of GSK3186899/DDD853651 as a Preclinical Development Candidate for the Treatment of Visceral Leishmaniasis” (Journal of Medicinal Chemistry, 2018).

Tests used:
Assay in all cases: biochemical
Parameters in all cases: species or system HEK293/K-562/placenta mixed human extract; Kinobeads chemoproteomic competition binding, quantified by TMT LC-MS/MS, dose response up to 20 uM
ADCK1 = ADCK1 (Homo sapiens, UniProt Q86TW2)
AURKA = AURKA (Homo sapiens, UniProt O14965)
BUB1 = BUB1 (Homo sapiens, UniProt O43683)
CIT = CIT (Homo sapiens, UniProt O14578)
Chain of CIT (O14578 whole entry): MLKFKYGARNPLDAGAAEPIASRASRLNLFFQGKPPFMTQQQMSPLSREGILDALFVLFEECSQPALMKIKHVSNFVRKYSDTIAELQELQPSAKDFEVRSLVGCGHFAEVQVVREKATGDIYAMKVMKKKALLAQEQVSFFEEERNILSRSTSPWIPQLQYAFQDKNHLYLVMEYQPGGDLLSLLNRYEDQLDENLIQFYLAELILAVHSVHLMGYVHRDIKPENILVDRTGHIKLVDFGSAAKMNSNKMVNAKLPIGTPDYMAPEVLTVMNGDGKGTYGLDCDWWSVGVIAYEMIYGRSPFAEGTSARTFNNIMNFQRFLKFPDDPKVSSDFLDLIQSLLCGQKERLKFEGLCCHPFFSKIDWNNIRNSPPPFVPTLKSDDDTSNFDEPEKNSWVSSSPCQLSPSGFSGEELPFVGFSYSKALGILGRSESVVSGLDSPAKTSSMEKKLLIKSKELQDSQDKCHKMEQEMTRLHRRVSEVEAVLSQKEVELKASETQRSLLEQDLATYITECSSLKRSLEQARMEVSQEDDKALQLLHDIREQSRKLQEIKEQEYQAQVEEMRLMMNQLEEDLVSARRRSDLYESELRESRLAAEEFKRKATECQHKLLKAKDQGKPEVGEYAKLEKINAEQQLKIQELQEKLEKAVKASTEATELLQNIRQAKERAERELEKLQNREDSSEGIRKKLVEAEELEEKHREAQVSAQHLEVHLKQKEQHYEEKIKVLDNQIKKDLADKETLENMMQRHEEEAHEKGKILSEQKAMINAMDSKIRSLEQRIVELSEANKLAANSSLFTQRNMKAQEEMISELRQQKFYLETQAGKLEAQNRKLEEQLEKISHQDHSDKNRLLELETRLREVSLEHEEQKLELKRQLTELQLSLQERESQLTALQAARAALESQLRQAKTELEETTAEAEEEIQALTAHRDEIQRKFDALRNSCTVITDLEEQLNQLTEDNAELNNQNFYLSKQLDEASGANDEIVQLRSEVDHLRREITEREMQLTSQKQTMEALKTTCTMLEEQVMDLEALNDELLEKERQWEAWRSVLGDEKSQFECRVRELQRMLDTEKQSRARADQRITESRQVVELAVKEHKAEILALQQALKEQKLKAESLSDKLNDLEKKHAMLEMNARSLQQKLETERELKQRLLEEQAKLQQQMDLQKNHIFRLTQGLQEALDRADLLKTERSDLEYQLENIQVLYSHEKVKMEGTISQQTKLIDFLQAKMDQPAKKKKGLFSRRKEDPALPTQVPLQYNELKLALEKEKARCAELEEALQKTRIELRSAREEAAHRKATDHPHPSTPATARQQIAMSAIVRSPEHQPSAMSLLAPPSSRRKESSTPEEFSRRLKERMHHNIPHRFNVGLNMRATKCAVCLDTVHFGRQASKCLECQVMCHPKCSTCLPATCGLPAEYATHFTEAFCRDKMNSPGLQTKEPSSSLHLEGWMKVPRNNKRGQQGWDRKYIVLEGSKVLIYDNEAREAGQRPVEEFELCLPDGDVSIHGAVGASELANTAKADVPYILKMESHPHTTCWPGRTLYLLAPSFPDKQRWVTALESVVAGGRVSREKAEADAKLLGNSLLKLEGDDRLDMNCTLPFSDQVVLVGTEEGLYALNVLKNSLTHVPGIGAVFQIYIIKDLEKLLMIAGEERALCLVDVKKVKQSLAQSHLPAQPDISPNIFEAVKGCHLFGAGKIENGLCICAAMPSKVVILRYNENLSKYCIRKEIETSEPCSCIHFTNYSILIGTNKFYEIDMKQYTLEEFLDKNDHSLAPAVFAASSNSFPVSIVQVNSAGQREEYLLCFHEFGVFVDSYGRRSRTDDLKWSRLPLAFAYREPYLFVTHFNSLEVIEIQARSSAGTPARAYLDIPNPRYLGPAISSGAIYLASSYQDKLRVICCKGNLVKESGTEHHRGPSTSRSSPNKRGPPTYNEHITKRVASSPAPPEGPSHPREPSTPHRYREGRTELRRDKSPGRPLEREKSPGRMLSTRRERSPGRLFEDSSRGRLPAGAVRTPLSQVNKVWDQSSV

CSNK1D = CSNK1D (Homo sapiens, UniProt P48730)
DDR2 = DDR2 (Homo sapiens, UniProt Q16832)
EPHB4 = EPHB4 (Homo sapiens, UniProt P54760)
FN3KRP = FN3KRP (Homo sapiens, UniProt Q9HA64)
Chain of FN3KRP (Q9HA64 whole entry): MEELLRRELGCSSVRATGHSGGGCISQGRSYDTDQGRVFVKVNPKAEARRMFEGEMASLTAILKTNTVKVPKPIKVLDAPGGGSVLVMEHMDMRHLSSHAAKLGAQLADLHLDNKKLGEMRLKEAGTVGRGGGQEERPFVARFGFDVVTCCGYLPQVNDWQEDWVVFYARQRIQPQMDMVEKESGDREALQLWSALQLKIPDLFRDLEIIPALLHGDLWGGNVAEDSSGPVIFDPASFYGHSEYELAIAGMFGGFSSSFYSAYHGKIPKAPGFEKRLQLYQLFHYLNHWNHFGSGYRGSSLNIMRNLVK

MAP2K3 = MAP2K3 (Homo sapiens, UniProt P46734)
MAP3K11 = MAP3K11 (Homo sapiens, UniProt Q16584)
MAP3K2 = MAP3K2 (Homo sapiens, UniProt Q9Y2U5)
Chain of MAP3K2 (Q9Y2U5 whole entry): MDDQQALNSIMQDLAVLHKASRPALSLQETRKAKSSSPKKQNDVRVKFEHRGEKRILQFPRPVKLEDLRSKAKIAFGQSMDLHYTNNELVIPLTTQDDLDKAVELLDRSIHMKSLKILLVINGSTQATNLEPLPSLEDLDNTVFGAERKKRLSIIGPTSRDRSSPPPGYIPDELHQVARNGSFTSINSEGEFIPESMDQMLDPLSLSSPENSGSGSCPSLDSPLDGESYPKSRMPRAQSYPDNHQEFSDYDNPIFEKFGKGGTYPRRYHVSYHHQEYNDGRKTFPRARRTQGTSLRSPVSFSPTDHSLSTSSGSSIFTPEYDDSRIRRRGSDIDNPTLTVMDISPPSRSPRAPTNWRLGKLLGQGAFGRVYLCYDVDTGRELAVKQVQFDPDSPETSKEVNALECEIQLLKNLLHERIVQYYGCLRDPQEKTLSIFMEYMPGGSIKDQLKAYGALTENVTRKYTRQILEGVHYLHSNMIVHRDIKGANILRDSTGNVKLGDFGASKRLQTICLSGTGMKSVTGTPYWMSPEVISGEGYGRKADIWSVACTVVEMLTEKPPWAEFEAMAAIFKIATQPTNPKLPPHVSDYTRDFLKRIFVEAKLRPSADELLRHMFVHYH

MAP3K4 = MAP3K4 (Homo sapiens, UniProt Q9Y6R4)
MAP3K7 = MAP3K7 (Homo sapiens, UniProt O43318)
Chain of MAP3K7 (O43318 whole entry): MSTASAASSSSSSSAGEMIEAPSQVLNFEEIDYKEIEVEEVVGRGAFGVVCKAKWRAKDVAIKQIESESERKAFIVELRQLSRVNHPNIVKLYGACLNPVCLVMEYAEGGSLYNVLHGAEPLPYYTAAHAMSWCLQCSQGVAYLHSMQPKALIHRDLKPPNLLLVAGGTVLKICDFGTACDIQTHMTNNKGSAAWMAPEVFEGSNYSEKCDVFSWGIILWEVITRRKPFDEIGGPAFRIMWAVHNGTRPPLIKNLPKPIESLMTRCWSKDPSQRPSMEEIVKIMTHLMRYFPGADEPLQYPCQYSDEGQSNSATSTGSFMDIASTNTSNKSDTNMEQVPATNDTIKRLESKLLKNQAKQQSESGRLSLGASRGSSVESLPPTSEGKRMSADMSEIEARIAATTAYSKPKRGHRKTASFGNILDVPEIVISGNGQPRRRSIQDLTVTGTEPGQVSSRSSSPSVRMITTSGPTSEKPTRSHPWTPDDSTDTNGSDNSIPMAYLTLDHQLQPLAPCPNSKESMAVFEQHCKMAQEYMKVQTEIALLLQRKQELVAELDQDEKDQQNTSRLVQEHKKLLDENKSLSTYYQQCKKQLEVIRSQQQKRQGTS

MAPK14 = MAPK14 (Homo sapiens, UniProt Q16539)
MARK3 = MARK3 (Homo sapiens, UniProt P27448)
Chain of MARK3 (P27448 whole entry): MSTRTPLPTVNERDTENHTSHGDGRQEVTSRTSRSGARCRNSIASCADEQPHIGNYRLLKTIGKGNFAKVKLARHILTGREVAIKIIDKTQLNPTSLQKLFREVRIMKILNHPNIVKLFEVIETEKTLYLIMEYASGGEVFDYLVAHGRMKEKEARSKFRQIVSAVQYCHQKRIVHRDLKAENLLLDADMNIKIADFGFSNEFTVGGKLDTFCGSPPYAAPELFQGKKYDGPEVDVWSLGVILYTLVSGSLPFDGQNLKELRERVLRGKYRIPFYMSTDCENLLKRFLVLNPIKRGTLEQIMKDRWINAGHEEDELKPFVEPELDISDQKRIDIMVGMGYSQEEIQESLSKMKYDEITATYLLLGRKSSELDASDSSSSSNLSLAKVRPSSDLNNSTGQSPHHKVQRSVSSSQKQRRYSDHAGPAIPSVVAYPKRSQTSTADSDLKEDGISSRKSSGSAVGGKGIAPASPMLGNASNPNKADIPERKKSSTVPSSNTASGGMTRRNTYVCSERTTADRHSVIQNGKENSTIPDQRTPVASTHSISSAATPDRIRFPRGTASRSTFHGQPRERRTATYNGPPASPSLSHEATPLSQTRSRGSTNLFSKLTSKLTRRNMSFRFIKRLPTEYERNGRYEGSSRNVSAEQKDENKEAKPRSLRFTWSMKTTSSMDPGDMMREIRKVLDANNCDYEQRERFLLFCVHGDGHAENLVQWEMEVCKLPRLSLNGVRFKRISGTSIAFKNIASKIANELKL

MELK = MELK (Homo sapiens, UniProt Q14680)
PDXK = PDXK (Homo sapiens, UniProt O00764)
Chain of PDXK (O00764 whole entry): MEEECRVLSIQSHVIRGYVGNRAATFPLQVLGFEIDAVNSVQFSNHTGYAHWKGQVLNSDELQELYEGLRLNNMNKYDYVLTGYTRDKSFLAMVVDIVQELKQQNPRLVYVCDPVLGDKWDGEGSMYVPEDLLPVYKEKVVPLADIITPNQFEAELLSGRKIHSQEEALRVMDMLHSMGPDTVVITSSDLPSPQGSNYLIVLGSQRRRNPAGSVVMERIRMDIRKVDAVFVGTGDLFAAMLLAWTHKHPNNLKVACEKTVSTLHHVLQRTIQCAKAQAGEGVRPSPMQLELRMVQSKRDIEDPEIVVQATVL

PIM2 = PIM2 (Homo sapiens, UniProt Q9P1W9)
Chain of PIM2 (Q9P1W9 whole entry): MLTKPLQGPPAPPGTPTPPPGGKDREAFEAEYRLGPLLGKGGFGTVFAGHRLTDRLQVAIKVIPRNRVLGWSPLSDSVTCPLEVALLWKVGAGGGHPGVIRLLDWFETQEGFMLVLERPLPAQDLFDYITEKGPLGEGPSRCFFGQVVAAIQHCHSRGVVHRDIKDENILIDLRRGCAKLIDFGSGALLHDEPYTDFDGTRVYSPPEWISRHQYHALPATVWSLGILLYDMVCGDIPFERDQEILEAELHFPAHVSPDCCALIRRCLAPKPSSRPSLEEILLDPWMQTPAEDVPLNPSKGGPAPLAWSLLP

PRKG1 = PRKG1 (Homo sapiens, UniProt Q13976)
ROCK2 = ROCK2 (Homo sapiens, UniProt O75116)
mTOR = mTOR (Homo sapiens, UniProt P42345)

Measured: IC50

COc1nc(N[C@H]2CC[C@H](NS(=O)(=O)CC(C)C)CC2)nc2[nH]nc(N3CCOC[C@H]3C)c12 [compound 39, N-(trans-4-((4-Methoxy-3-((R)-3-methylmorpholino)-1H-pyrazolo[3,4-d]pyrimidin-6-yl)amino)cyclohexyl)-2-methylpropane-1-sulfonamide]
≥ 20 µM: all assays above
